Test results: the NIST ThermoML archive (doi:10.1016/j.tca.2018.11.018)

Assay: xn = mol fraction of the nth substance listed
Details: 100 kPa, Liquid; for viscosity: Falling or rolling sphere viscometry; for mass density: Vibrating tube method

CCCC[N+](CC)(CC)CC.[Br-] [butyltriethyl ammonium bromide] + O
Details | mass density [kg/m3] | viscosity [mPa·s]
298.15 K, x1 = 0.02 | 1030.2 | 1.581
298.15 K, x1 = 0.04 | 1057.3 | 2.599
298.15 K, x1 = 0.06 | 1078.8 | 4.044
298.15 K, x1 = 0.08 | 1095.3 | 5.87
298.15 K, x1 = 0.105 | 1111 | 10.02
298.15 K, x1 = 0.13 | 1122.8 | 14.11
298.15 K, x1 = 0.16 | 1133.5 | 21.36
298.15 K, x1 = 0.189 | 1140.9 | 30.66
298.15 K, x1 = 0.22 | 1147.3 | 43.63
298.15 K, x1 = 0.253 | 1152.5 | 63.73
303.15 K, x1 = 0.02 | 1028.2 | 1.381
303.15 K, x1 = 0.04 | 1054.7 | 2.216
303.15 K, x1 = 0.06 | 1075.6 | 3.393
303.15 K, x1 = 0.08 | 1091.9 | 4.835
303.15 K, x1 = 0.105 | 1107.4 | 8.222
303.15 K, x1 = 0.13 | 1119.1 | 11.45
303.15 K, x1 = 0.16 | 1129.8 | 16.85
303.15 K, x1 = 0.189 | 1137.3 | 23.62
303.15 K, x1 = 0.22 | 1143.7 | 33
303.15 K, x1 = 0.253 | 1148.9 | 47.05
308.15 K, x1 = 0.02 | 1026 | 1.223
308.15 K, x1 = 0.04 | 1051.9 | 1.921
308.15 K, x1 = 0.06 | 1072.5 | 2.885
308.15 K, x1 = 0.08 | 1088.4 | 4.054
308.15 K, x1 = 0.105 | 1103.8 | 6.767
308.15 K, x1 = 0.13 | 1115.4 | 9.328
308.15 K, x1 = 0.16 | 1126.1 | 13.49
308.15 K, x1 = 0.189 | 1133.6 | 18.55
308.15 K, x1 = 0.22 | 1140.1 | 25.39
308.15 K, x1 = 0.253 | 1145.4 | 35.52
313.15 K, x1 = 0.02 | 1023.6 | 1.091
313.15 K, x1 = 0.04 | 1049.1 | 1.682
313.15 K, x1 = 0.06 | 1069.2 | 2.488
313.15 K, x1 = 0.08 | 1084.9 | 3.441
313.15 K, x1 = 0.105 | 1100.2 | 5.583
313.15 K, x1 = 0.13 | 1111.7 | 7.649
313.15 K, x1 = 0.16 | 1122.4 | 10.91
313.15 K, x1 = 0.189 | 1129.9 | 14.79
313.15 K, x1 = 0.22 | 1136.5 | 19.92
313.15 K, x1 = 0.253 | 1141.9 | 27.22
318.15 K, x1 = 0.02 | 1021 | 0.981
318.15 K, x1 = 0.04 | 1046.1 | 1.485
318.15 K, x1 = 0.06 | 1065.9 | 2.164
318.15 K, x1 = 0.08 | 1081.4 | 2.942
318.15 K, x1 = 0.105 | 1096.5 | 4.648
318.15 K, x1 = 0.13 | 1108 | 6.334
318.15 K, x1 = 0.16 | 1118.7 | 8.969
318.15 K, x1 = 0.189 | 1126.2 | 12.07
318.15 K, x1 = 0.22 | 1132.8 | 15.94
318.15 K, x1 = 0.253 | 1138.3 | 21.51
323.15 K, x1 = 0.02 | 1018.3 | 0.889
323.15 K, x1 = 0.04 | 1042.9 | 1.324
323.15 K, x1 = 0.06 | 1062 | 1.906
323.15 K, x1 = 0.08 | 1077.8 | 2.567
323.15 K, x1 = 0.105 | 1092.8 | 3.92
323.15 K, x1 = 0.13 | 1104.2 | 5.293
323.15 K, x1 = 0.16 | 1115 | 7.453
323.15 K, x1 = 0.189 | 1122.5 | 9.912
323.15 K, x1 = 0.22 | 1129.2 | 12.97
323.15 K, x1 = 0.253 | 1134.7 | 17.19
328.15 K, x1 = 0.02 | 1015.8 | 0.812
328.15 K, x1 = 0.04 | 1039.9 | 1.189
328.15 K, x1 = 0.06 | 1059.1 | 1.69
328.15 K, x1 = 0.08 | 1074.2 | 2.252
328.15 K, x1 = 0.105 | 1089.1 | 3.358
328.15 K, x1 = 0.13 | 1100.5 | 4.483
328.15 K, x1 = 0.16 | 1111.2 | 6.266
328.15 K, x1 = 0.189 | 1118.8 | 8.29
328.15 K, x1 = 0.22 | 1125.6 | 10.76
328.15 K, x1 = 0.253 | 1131.2 | 14.11
333.15 K, x1 = 0.02 | 1013.01 | 0.75
333.15 K, x1 = 0.04 | 1036.64 | 1.077
333.15 K, x1 = 0.06 | 1055.6 | 1.514
333.15 K, x1 = 0.08 | 1070.54 | 1.996
333.15 K, x1 = 0.105 | 1085.3 | 2.937
333.15 K, x1 = 0.13 | 1096.66 | 3.847
333.15 K, x1 = 0.16 | 1107.44 | 5.319
333.15 K, x1 = 0.189 | 1115.11 | 7.032
333.15 K, x1 = 0.22 | 1121.89 | 9.062
333.15 K, x1 = 0.253 | 1127.56 | 11.8
338.15 K, x1 = 0.02 | 1010 | 0.7
338.15 K, x1 = 0.04 | 1033.3 | 0.999
338.15 K, x1 = 0.06 | 1052 | 1.363
338.15 K, x1 = 0.08 | 1066.8 | 1.781
338.15 K, x1 = 0.105 | 1081.5 | 2.425
338.15 K, x1 = 0.13 | 1092.8 | 3.339
338.15 K, x1 = 0.16 | 1103.7 | 4.555
338.15 K, x1 = 0.189 | 1111.4 | 5.982
338.15 K, x1 = 0.22 | 1118.2 | 7.687
338.15 K, x1 = 0.253 | 1124 | 9.932
343.15 K, x1 = 0.02 | 1006.6 | 0.655
343.15 K, x1 = 0.04 | 1029.5 | 0.922
343.15 K, x1 = 0.06 | 1048.4 | 1.233
343.15 K, x1 = 0.08 | 1063.1 | 1.601
343.15 K, x1 = 0.105 | 1077.7 | 2.156
343.15 K, x1 = 0.13 | 1089 | 2.959
343.15 K, x1 = 0.16 | 1099.8 | 3.974
343.15 K, x1 = 0.189 | 1107.6 | 5.163
343.15 K, x1 = 0.22 | 1114.6 | 6.602
343.15 K, x1 = 0.253 | 1120.3 | 8.504
348.15 K, x1 = 0.02 | 1003.4 | 0.608
348.15 K, x1 = 0.04 | 1026.5 | 0.876
348.15 K, x1 = 0.06 | 1044.7 | 1.124
348.15 K, x1 = 0.08 | 1059.3 | 1.446
348.15 K, x1 = 0.105 | 1073.8 | 1.931
348.15 K, x1 = 0.13 | 1085.1 | 2.658
348.15 K, x1 = 0.16 | 1096 | 3.489
348.15 K, x1 = 0.189 | 1103.8 | 4.485
348.15 K, x1 = 0.22 | 1110.8 | 5.702
348.15 K, x1 = 0.253 | 1116.7 | 7.325
